Reference: ChEMBL document CHEMBL1201862, “PubChem BioAssay data set” (2004)
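Five compound concentrations were applied to cells in 96-well plates for 48 hours; endpoints were derived by simple linear interpolation of the resulting dose-response curve. GI50 marks 50% less growth.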 Calls of active or inactive are those of the source. No stated cut-off is given here; in the data, active = GI50 up to about 1.1 µM and inactive = higher.

Legend:
Experiment in all cases: NCI-60 cell line screen, 48 h
NCI-H522 = test system: NCI-H522
OVCAR-5 = test system: OVCAR-5
RPMI-8226 = test system: RPMI-8226
PC-3 = test system: PC-3
CAKI-1 = test system: CAKI-1
OVCAR-4 = test system: OVCAR-4
IGROV-1 = test system: IGROV-1
NCI/ADR-RES = test system: NCI/ADR-RES
SK-MEL-28 = test system: SK-MEL-28
LOX IMVI = test system: LOX IMVI
MDA-N = test system: MDA-N
EKVX = test system: EKVX
K562 = test system: K562
MDA-MB-231 = test system: MDA-MB-231
SF-539 = test system: SF-539
MCF7 = test system: MCF7
SK-OV-3 = test system: SK-OV-3
UACC-257 = test system: UACC-257
CCRF-CEM = test system: CCRF-CEM
DMS-114 = test system: DMS-114

Measured: GI50

CC(C)(C)c1ccc(O)c(CN(Cc2cc(C(C)(C)C)ccc2O)C2CCCCC2)c1
inactive: NCI-H522 15.8 µM | OVCAR-5 17.7 µM | RPMI-8226 8.73 µM | PC-3 17.5 µM | CAKI-1 26.2 µM | OVCAR-4 16.9 µM | IGROV-1 17.6 µM | NCI/ADR-RES 20.3 µM | SK-MEL-28 14.5 µM | LOX IMVI 10.7 µM | MDA-N 14.7 µM | EKVX 17.5 µM | K562 6.46 µM | MDA-MB-231 18 µM | SF-539 17.3 µM | MCF7 17.4 µM | SK-OV-3 24.4 µM | UACC-257 18.3 µM | CCRF-CEM 27.5 µM

O=C1/C(=C/c2ccc(Cl)c(Cl)c2)CNC/C1=C\c1ccc(Cl)c(Cl)c1
inactive: NCI-H522 11 µM | OVCAR-5 18.3 µM | RPMI-8226 3.75 µM | PC-3 13.9 µM | CAKI-1 4.09 µM | OVCAR-4 2.52 µM | IGROV-1 7.6 µM | NCI/ADR-RES 3.66 µM | SK-MEL-28 26.3 µM | LOX IMVI 5.07 µM | MDA-N 20.4 µM | EKVX 6.17 µM | K562 3.1 µM | MDA-MB-231 3.14 µM | SF-539 7.87 µM | MCF7 7.64 µM | SK-OV-3 40.7 µM | UACC-257 41.2 µM | CCRF-CEM 2.29 µM

Nc1ncnc2nn(C3OC(CO)C(O)C3O)nc12 (stereo not drawn)
inactive: NCI-H522 6.82 µM | OVCAR-5 9.06 µM | RPMI-8226 3.64 µM | PC-3 17.3 µM | CAKI-1 8.55 µM | OVCAR-4 28 µM | IGROV-1 4.12 µM | NCI/ADR-RES 9.73 µM | SK-MEL-28 36.6 µM | LOX IMVI 6.32 µM | MDA-N 10.3 µM | EKVX 41.3 µM | K562 5.46 µM | MDA-MB-231 3.75 µM | SF-539 21.8 µM | MCF7 8.28 µM | SK-OV-3 2.67 µM | UACC-257 23.2 µM | CCRF-CEM 21.1 µM

O=C(c1ccccc1)C1N=NN(Cc2ccccc2[N+](=O)[O-])C1C(=O)c1ccccc1 (stereo not drawn)
inactive: NCI-H522 > 100 µM | OVCAR-5 > 100 µM | RPMI-8226 > 100 µM | CAKI-1 > 100 µM | OVCAR-4 > 100 µM | IGROV-1 > 100 µM | SK-MEL-28 > 100 µM | LOX IMVI > 100 µM | EKVX > 100 µM | K562 > 100 µM | SK-OV-3 87.3 µM | UACC-257 > 100 µM | CCRF-CEM > 100 µM | DMS-114 > 100 µM

CC1=C(C(=O)NCc2ccccc2)C(c2ccc(Cl)c(Cl)c2)C(C(=O)NCc2ccccc2)=C(C)N1
inactive: NCI-H522 > 100 µM | OVCAR-5 > 100 µM | RPMI-8226 > 100 µM | OVCAR-4 > 100 µM | IGROV-1 > 100 µM | SK-MEL-28 > 100 µM | LOX IMVI > 100 µM | EKVX > 100 µM | K562 > 100 µM | SF-539 > 100 µM | UACC-257 > 100 µM | CCRF-CEM > 100 µM | DMS-114 > 100 µM

O=C1C2C(C(=O)N1c1ccccc1)C1([N+](=O)[O-])C=C3c4ccccc4N(C(=O)c4ccccc4)C32C2C(=O)N(c3ccccc3)C(=O)C21 (stereo not drawn)
inactive: NCI-H522 > 100 µM | OVCAR-5 > 100 µM | CAKI-1 > 100 µM | IGROV-1 > 100 µM | SK-MEL-28 > 100 µM | LOX IMVI > 100 µM | K562 > 100 µM | SF-539 > 10 µM | SK-OV-3 > 100 µM | UACC-257 > 100 µM | CCRF-CEM > 100 µM | DMS-114 > 100 µM

CN1C(=O)C(=CN(C)c2ccccc2)C(=O)N(C)C1=O
inactive: OVCAR-5 > 100 µM | RPMI-8226 > 100 µM | CAKI-1 30.1 µM | OVCAR-4 > 100 µM | IGROV-1 56.5 µM | SK-MEL-28 > 100 µM | LOX IMVI > 100 µM | EKVX 65.8 µM | K562 > 100 µM | SF-539 > 100 µM | UACC-257 > 100 µM | CCRF-CEM 40.4 µM | DMS-114 57.7 µM

N#CC1=C(Cl)NC(Cl)=C(C#N)C1c1ccc(Cl)cc1
inactive: NCI-H522 13 µM | OVCAR-5 34 µM | RPMI-8226 17.5 µM | CAKI-1 17.9 µM | IGROV-1 18.2 µM | SK-MEL-28 22.9 µM | LOX IMVI 16.1 µM | EKVX 19.5 µM | K562 11.9 µM | SF-539 18.1 µM | SK-OV-3 17.2 µM | UACC-257 18.3 µM | CCRF-CEM 25 µM | DMS-114 15.2 µM
